Assay results published in article PMC4780411 (Journal of chemical information and modeling, 2015).

Assays:
human ERα = target: T1, human ERα (Homo sapiens, UniProt P03372); assay: competitive radiometric binding assay with [3H]estradiol, ERα
T1 sequence (P03372 1-595): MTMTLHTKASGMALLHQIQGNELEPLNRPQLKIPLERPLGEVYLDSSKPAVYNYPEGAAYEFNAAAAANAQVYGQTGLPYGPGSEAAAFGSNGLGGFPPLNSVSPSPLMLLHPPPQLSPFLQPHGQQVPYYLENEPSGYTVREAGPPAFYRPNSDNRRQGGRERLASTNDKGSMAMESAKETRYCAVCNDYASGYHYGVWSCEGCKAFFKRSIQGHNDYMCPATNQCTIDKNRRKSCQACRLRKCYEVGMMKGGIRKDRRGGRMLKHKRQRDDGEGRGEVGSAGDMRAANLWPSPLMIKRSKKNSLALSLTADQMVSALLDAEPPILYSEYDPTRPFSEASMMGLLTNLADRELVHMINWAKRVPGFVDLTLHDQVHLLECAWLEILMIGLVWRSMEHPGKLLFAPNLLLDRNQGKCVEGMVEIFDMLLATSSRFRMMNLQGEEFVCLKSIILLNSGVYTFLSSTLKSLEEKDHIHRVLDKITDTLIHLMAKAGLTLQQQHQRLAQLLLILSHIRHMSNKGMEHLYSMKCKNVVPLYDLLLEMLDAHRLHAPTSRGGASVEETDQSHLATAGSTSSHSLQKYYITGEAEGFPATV

human ERβ = human ERβ (Homo sapiens, UniProt Q92731); assay: competitive radiometric binding assay with [3H]estradiol, ERβ
human ERβ, sequence (Q92731 whole entry): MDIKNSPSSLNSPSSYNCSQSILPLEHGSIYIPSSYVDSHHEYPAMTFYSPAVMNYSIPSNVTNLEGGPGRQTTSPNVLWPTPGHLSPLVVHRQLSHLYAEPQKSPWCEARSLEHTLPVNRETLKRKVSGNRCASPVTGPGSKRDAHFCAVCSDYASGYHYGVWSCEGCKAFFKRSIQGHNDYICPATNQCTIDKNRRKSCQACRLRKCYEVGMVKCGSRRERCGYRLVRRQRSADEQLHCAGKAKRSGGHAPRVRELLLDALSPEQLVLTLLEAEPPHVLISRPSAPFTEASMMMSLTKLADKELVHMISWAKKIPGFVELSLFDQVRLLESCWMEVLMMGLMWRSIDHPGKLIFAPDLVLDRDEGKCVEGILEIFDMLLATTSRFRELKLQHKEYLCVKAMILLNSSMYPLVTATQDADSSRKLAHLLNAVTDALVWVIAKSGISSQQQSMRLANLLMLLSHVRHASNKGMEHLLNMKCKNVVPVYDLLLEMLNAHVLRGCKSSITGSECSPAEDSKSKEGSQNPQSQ

O=C1C[C@@H](c2ccc(O)cc2)Oc2cc(O)cc(O)c21 [NCI-34875, Naringenin]
Ki (human ERα): 2.56 ± 0.5 µM | Ki (human ERβ): 3.1 ± 0.9 µM
